Laboratory results from PubChem BioAssay (NCI).
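How tested: cells in 96-well plates exposed to compound for 48 hours at five concentrations. TGI: concentration producing complete growth inhibition.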

Columns and labels:
Test in all cases: growth of human tumour cells (NCI), 48 h
HOP-62 NSCLC = test system: HOP-62 NSCLC
KM12 colon = test system: KM12 colon
M14 melanoma = test system: M14 melanoma
SF-295 CNS = test system: SF-295 CNS
LOX IMVI melanoma = test system: LOX IMVI melanoma
SK-MEL-2 melanoma = test system: SK-MEL-2 melanoma
OVCAR-4 ovarian = test system: OVCAR-4 ovarian
COLO 205 colon = test system: COLO 205 colon
MDA-MB-231 breast = test system: MDA-MB-231 breast
NCI/ADR-RES ovarian = test system: NCI/ADR-RES ovarian

| SMILES | TGI (HOP-62 NSCLC) [µM] | TGI (KM12 colon) [µM] | TGI (M14 melanoma) [µM] | TGI (SF-295 CNS) [µM] | TGI (LOX IMVI melanoma) [µM] | TGI (SK-MEL-2 melanoma) [µM] | TGI (OVCAR-4 ovarian) [µM] | TGI (COLO 205 colon) [µM] | TGI (MDA-MB-231 breast) [µM] | TGI (NCI/ADR-RES ovarian) [µM] |
| --- | --- | --- | --- | --- | --- | --- | --- | --- | --- | --- |
| CN=C(SC)N(C)c1nc(=[N+](C)C)ss1 | > 100 | > 100 | > 100 | > 100 | > 100 | > 100 |  |  |  |  |
| CC(=O)O[C@H]1C(=O)[C@@]2(C)C(C(OC(=O)c3ccccc3)[C@]3(O)CC(OC(=O)C(O)C(NC(=O)c4ccc(C(F)(F)F)cc4)c4ccccc4)C(C)=C1C3(C)C)[C@]1(OC(C)=O)CO[C@@H]1C[C@@H]2O (stereo partly specified) | 0.506 | 0.202 | 0.485 | 1.79 | 6.43 | 0.284 | > 37.5 | 0.153 |  |  |
| CCOC(=O)CC(C)C1(C(=O)OCC)CCCCC1=O (stereo unspecified) | > 100 | > 100 | > 100 | > 100 | > 100 | > 100 | > 100 | > 100 |  |  |
| Cn1c([C@H](C#N)c2ncccc2[N+](=O)[O-])nc2ccccc21 | 67.6 | > 100 | > 100 | > 100 | > 100 | > 100 |  |  | > 100 | > 100 |
| Nc1ccc(Cc2c(N)[nH]c(=O)[nH]c2=O)cc1 |  |  | > 100 | > 100 | > 100 | > 100 | > 100 | > 100 | > 100 | > 100 |
| CN(C)CC1CCCC(CN(C)C)C1OC(=O)c1ccccc1 (stereo unspecified) | > 100 | > 100 | > 100 | > 100 | > 100 | > 100 | > 100 | > 100 |  |  |
| CCc1cc(Cc2cc(CC)c(NC(=O)C(=O)CC(=O)c3sc(-c4cccnc4)nc3C)c(CC)c2)cc(CC)c1NC(=O)C(=O)CC(=O)c1sc(-c2cccnc2)nc1C |  | > 100 | > 100 | > 100 | > 100 | > 100 | > 100 | > 100 | > 100 | > 100 |
| Cc1cc(NS(=O)(=O)c2ccc(Nc3c4ccccc4nc4c(C(=O)N5CCN(CCO)CC5)cccc34)cc2)no1 | > 100 | > 100 | > 100 | > 100 | > 100 | > 100 | > 100 | > 100 |  |  |
| C(/C=C/Nc1ccc(Oc2ccccc2)cc1)=Nc1ccc(Oc2ccccc2)cc1 | 38 | 30.3 |  | 29.4 | 28.2 |  | 32.8 | 43.6 | 31.1 | 33.5 |
| C=C(C)[C@H]1Cc2c(ccc3c2O[C@@H]2COc4cc(OC)c(OC)cc4[C@@H]2C3=O)O1 | 40.5 | 14.3 | 24.7 | 38 | 8.04 | 25.3 | 68.5 | 0.539 | 44.7 |  |
| O=C1c2ccccc2C(=O)N1CCCCNOCCCN1C(=O)c2ccccc2C1=O | > 100 | > 100 | > 100 | > 100 | > 100 |  | > 100 | > 100 | > 100 | > 100 |
| O=C(Nc1ccccc1-c1nc2ccccc2[nH]c1=O)c1ccccc1 | 35.9 | > 100 | > 100 | 47.4 | 61.9 | 56 | 50.6 | > 100 |  |  |
| CC1(C)C[C@@H]2C1CCC1(C)CC2(O)CC[C@H]1O (stereo partly specified) | > 100 | > 100 | > 100 | > 100 | > 100 | > 100 | > 100 | > 100 |  | > 100 |
| CC(CC[C@@]1(C)C(=O)CCC2O[C@]21C)[C@H]1C[C@@H](c2ccoc2)OC1=O (stereo partly specified) | > 100 | > 100 | > 100 | > 100 | 48.2 | > 100 | 55.3 | 52.1 |  | > 100 |
| CCOC1=NC(O)c2cccn2-c2sccc21 (stereo unspecified) | > 100 | > 100 | > 100 | > 100 |  | > 100 | > 100 | > 100 | > 100 | > 100 |
| CCCc1c(O)nc(Nc2nc3ccccc3[nH]2)[nH]c1=O |  | > 100 | > 100 | > 100 |  | > 100 | > 100 | > 100 | > 100 | > 100 |
| CC(C)=C[C@H]1CCC2(OCCO2)[C@]1(C)COCc1ccccc1 |  | > 100 | 99.4 | > 100 | 31 | 85.9 | > 100 | 32.3 | 53.7 | > 100 |
